Measured values published in ChEMBL document CHEMBL1212697, “High-content single-cell drug screening with phosphospecific flow cytometry” (Nat Chem Biol, 2008).
pIC50: −log10 of the molar value. Activity calls are given as the source filed them.

Key:
[1] = Inhibition of JAK-mediated IL4-induced Stat5 phosphorylation in BALB/c mouse CD11b-hi neutrophils by Phospho-Flow cytometry
[2] = Inhibition of JAK-mediated IL10-induced Stat3 phosphorylation in BALB/c mouse CD4+ T cells by Phospho-Flow cytometry; assay type: cell-based; conditions: T-cell
[3] = Inhibition of JAK-mediated IL6-induced Stat1 phosphorylation in BALB/c mouse CD11b-int macrophages by Phospho-Flow cytometry
[4] = Inhibition of JAK-mediated IL15-induced Stat5 phosphorylation in BALB/c mouse CD11b-int macrophages by Phospho-Flow cytometry
[5] = Inhibition of JAK-mediated IL4-induced Stat5 phosphorylation in BALB/c mouse CD4+ T cells by Phospho-Flow cytometry; assay type: cell-based; conditions: T-cell
[6] = Inhibition of JAK-mediated IL15-induced Stat5 phosphorylation in BALB/c mouse CD11b-hi neutrophils by Phospho-Flow cytometry
[7] = Inhibition of JAK-mediated IL15-induced Stat5 phosphorylation in BALB/c mouse B cells by Phospho-Flow cytometry; assay type: cell-based
[8] = Inhibition of JAK-mediated interferon-gamma-induced Stat1 phosphorylation in BALB/c mouse CD11b-hi neutrophils by Phospho-Flow cytometry
[9] = Inhibition of JAK-mediated IL4-induced Stat6 phosphorylation in BALB/c mouse CD11b-int macrophages by Phospho-Flow cytometry
[10] = Inhibition of JAK-mediated IL7-induced Stat5 phosphorylation in BALB/c mouse CD8+ T cells by Phospho-Flow cytometry; assay type: cell-based; conditions: T-cell
[11] = Inhibition of JAK-mediated IL4-induced Stat5 phosphorylation in BALB/c mouse CD8+ T cells by Phospho-Flow cytometry; assay type: cell-based; conditions: T-cell
[12] = Inhibition of JAK-mediated IL15-induced Stat5 phosphorylation in BALB/c mouse CD4+ T cells by Phospho-Flow cytometry; assay type: cell-based; conditions: T-cell
[13] = Inhibition of JAK-mediated interferon-gamma-induced Stat1 phosphorylation in BALB/c mouse […] T cells by Phospho-Flow cytometry; assay type: cell-based; conditions: T-cell
[14] = Inhibition of JAK-mediated interferon-gamma-induced Stat1 phosphorylation in BALB/c mouse B cells by Phospho-Flow cytometry; assay type: cell-based
[15] = Inhibition of JAK-mediated IL6-induced Stat3 phosphorylation in BALB/c mouse CD4+ T cells by Phospho-Flow cytometry; assay type: cell-based; conditions: T-cell
[16] = Inhibition of JAK-mediated IL6-induced Stat3 phosphorylation in BALB/c mouse CD8+ T cells by Phospho-Flow cytometry; assay type: cell-based; conditions: T-cell
[17] = Inhibition of JAK-mediated IL4-induced Stat6 phosphorylation in BALB/c mouse CD8+ T cells by Phospho-Flow cytometry; assay type: cell-based; conditions: T-cell
[18] = Inhibition of JAK-mediated IL6-induced Stat1 phosphorylation in BALB/c mouse CD11b-hi neutrophils by Phospho-Flow cytometry
[19] = Inhibition of JAK-mediated IL7-induced Stat5 phosphorylation in BALB/c mouse CD11b-hi neutrophils by Phospho-Flow cytometry
[20] = Inhibition of JAK-mediated IL6-induced Stat1 phosphorylation in BALB/c mouse CD4+ T cells by Phospho-Flow cytometry; assay type: cell-based; conditions: T-cell
[21] = Inhibition of JAK-mediated IL4-induced Stat6 phosphorylation in BALB/c mouse CD4+ T cells by Phospho-Flow cytometry; assay type: cell-based; conditions: T-cell
[22] = Inhibition of JAK-mediated IL6-induced Stat1 phosphorylation in BALB/c mouse CD8+ T cells by Phospho-Flow cytometry; assay type: cell-based; conditions: T-cell
[23] = Inhibition of JAK-mediated interferon-gamma-induced Stat1 phosphorylation in BALB/c mouse CD4+ T cells by Phospho-Flow cytometry; assay type: cell-based; conditions: T-cell
[24] = Inhibition of JAK-mediated IL10-induced Stat3 phosphorylation in BALB/c mouse B cells by Phospho-Flow cytometry; assay type: cell-based
[25] = Inhibition of JAK-mediated IL10-induced Stat3 phosphorylation in BALB/c mouse CD8+ T cells by Phospho-Flow cytometry; assay type: cell-based; conditions: T-cell
[26] = Inhibition of JAK-mediated interferon-gamma-induced Stat1 phosphorylation in BALB/c mouse CD11b-int macrophages by Phospho-Flow cytometry
[27] = Inhibition of JAK-mediated IL6-induced Stat3 phosphorylation in BALB/c mouse B cells by Phospho-Flow cytometry; assay type: cell-based
[28] = Inhibition of JAK-mediated IL6-induced Stat3 phosphorylation in BALB/c mouse CD11b-int macrophages by Phospho-Flow cytometry
[29] = Inhibition of JAK-mediated IL7-induced Stat5 phosphorylation in BALB/c mouse CD4+ T cells by Phospho-Flow cytometry; assay type: cell-based; conditions: T-cell
[30] = Inhibition of JAK-mediated IL6-induced Stat3 phosphorylation in BALB/c mouse CD11b-hi neutrophils by Phospho-Flow cytometry
[31] = Inhibition of JAK-mediated IL10-induced Stat3 phosphorylation in BALB/c mouse CD11b-hi neutrophils by Phospho-Flow cytometry
[32] = Inhibition of JAK-mediated IL6-induced Stat1 phosphorylation in BALB/c mouse B cells by Phospho-Flow cytometry; assay type: cell-based
[33] = Inhibition of JAK-mediated IL15-induced Stat5 phosphorylation in BALB/c mouse CD8+ T cells by Phospho-Flow cytometry; assay type: cell-based; conditions: T-cell
[34] = Inhibition of JAK-mediated IL7-induced Stat5 phosphorylation in BALB/c mouse CD11b-int macrophages by Phospho-Flow cytometry
[35] = Inhibition of JAK-mediated IL4-induced Stat5 phosphorylation in BALB/c mouse CD11b-int macrophages by Phospho-Flow cytometry
[36] = Inhibition of JAK-mediated IL7-induced Stat5 phosphorylation in BALB/c mouse B cells by Phospho-Flow cytometry; assay type: cell-based
[37] = Inhibition of JAK-mediated IL10-induced Stat3 phosphorylation in BALB/c mouse CD11b-int macrophages by Phospho-Flow cytometry
[38] = Inhibition of JAK-mediated IL4-induced Stat5 phosphorylation in BALB/c mouse B cells by Phospho-Flow cytometry; assay type: cell-based
B [39] = test: Inhibition of JAK-mediated IL10-induced Stat3 phosphorylation in BALB/c mouse B cells at 1 uM by Western blotting analysis; assay type: cell-based
B [40] = test: Inhibition of JAK-mediated IL4-induced Stat5 phosphorylation in BALB/c mouse B cells at 1 uM by Western blotting analysis; assay type: cell-based
[41] = biological target: T1, Janus Kinase (JAK) (Homo sapiens) (UniProt P52333+P23458+O60674+P29597); test: Inhibition of JAK-mediated GM-CSF-induced Stat5 phosphorylation in human U937 cells by Phospho-Flow cytometry at 20 uM; assay type: cell-based; conditions: U-937
[42] = Inhibition of JAK-mediated IL4-induced Stat6 phosphorylation in BALB/c mouse B cells by Phospho-Flow cytometry; assay type: cell-based
[43] = biological target: T1, Janus Kinase (JAK) (Homo sapiens); test: Inhibition of JAK-mediated interferon-gamma-induced Stat1 phosphorylation in human U937 cells by Phospho-Flow cytometry at 20 uM; assay type: cell-based; conditions: U-937
B [44] = test: Inhibition of JAK-mediated IL4-induced Stat6 phosphorylation in BALB/c mouse B cells at 10 uM by Western blotting analysis; assay type: cell-based
MAP kinase p38 = MAP kinase p38 (Homo sapiens, UniProt O15264+Q15759+Q16539+P53778); test: Inhibition of anisomycin-induced p38 phosphorylation in human U937 cells by Phospho-Flow cytometry at 20 uM; assay type: cell-based; conditions: U-937
Mus musculus [45] = organism: Mus musculus; test: Inhibition of JAK-mediated IL4-induced Stat6 phosphorylation in BALB/c mouse CD8+ Tcells by Phospho-Flow cytometry
Mus musculus [46] = organism: Mus musculus; test: Inhibition of JAK-mediated IL4-induced Stat6 phosphorylation in BALB/c mouse CD11b-hi neutrophils by Phospho-Flow cytometry

C=CC(=O)c1ccc2ccccc2c1
> 4.70: pIC50 [1] | pIC50 [2] | pIC50 [3] | pIC50 [4] | pIC50 [5] | pIC50 [6] | pIC50 [7] | pIC50 [8] | pIC50 [9] | pIC50 [10] | pIC50 [11] | pIC50 [12] | pIC50 [13] | pIC50 [14] | pIC50 [15] | pIC50 [16] | pIC50 [17] | pIC50 [18] | pIC50 [19] | pIC50 [20] | pIC50 [21] | pIC50 [22] | pIC50 [23] | pIC50 [24] | pIC50 [25] | pIC50 [26] | pIC50 [27] | pIC50 [28] | pIC50 [29] | pIC50 [30] | pIC50 [31] | pIC50 [32] | pIC50 [33] | pIC50 [34] | pIC50 [35] | pIC50 [36] | pIC50 [37] | pIC50 [38]

C=C1C(=O)O[C@H]2C[C@@H]1[C@@H](OC(C)=O)C/C(C)=C/CC/C(C)=C\CC[C@@]2(C)O [CRASSIN]
6.00: pIC50 [24] | pIC50 [38]
> 4.70: pIC50 [1] | pIC50 [2] | pIC50 [3] | pIC50 [4] | pIC50 [5] | pIC50 [6] | pIC50 [7] | pIC50 [8] | pIC50 [9] | pIC50 [10] | pIC50 [11] | pIC50 [12] | pIC50 [14] | pIC50 [15] | pIC50 [16] | pIC50 [17] | pIC50 [18] | pIC50 [19] | pIC50 [20] | pIC50 [21] | pIC50 [22] | pIC50 [23] | pIC50 [25] | pIC50 [26] | pIC50 [27] | pIC50 [28] | pIC50 [29] | pIC50 [30] | pIC50 [31] | pIC50 [32] | pIC50 [33] | pIC50 [34] | pIC50 [35] | pIC50 [36] | pIC50 [37]
25%: inhibition [43] | inhibition (MAP kinase p38)
active: inhibition (B [39]) | inhibition (B [40]) | inhibition [41] | inhibition (B [44]) | inhibition (Mus musculus [45]) Dose-dependent effect | inhibition (Mus musculus [46]) Dose-dependent effect
4.80: pIC50 [42]
